In the assay the test system is BDF1 mice, P388 leukemia ip, median survival T/C. As to the kind of experiment: NCI In Vivo Anticancer Drug Screen. Data for tumor model P388 Leukemia (intraperitoneal) in B6D2F1 (BDF1) mice. Conditions: endpoint: median survival time, higher = longer survival. The essentials: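 Steps: implant the tumour, treat one group with compound and another with vehicle, record survival, then divide treated by control.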

The mark [1] stands for this setting: dose: 100.0 mg/kg/injection, schedule: Q01DX009 (ip), vehicle: saline.
Setting [2] is: dose: 100.0 mg/kg/injection, schedule: Q04DX003 (ip), vehicle: saline with Tween-80.
Setting [3] is: dose: 400.0 mg/kg/injection, schedule: Q04DX003 (ip), vehicle: saline with Tween-80.
Setting [4] is: dose: 100.0 mg/kg/injection, schedule: Q04DX003 (ip), vehicle: saline.
[5] abbreviates: dose: 200.0 mg/kg/injection, schedule: Q04DX003 (ip), vehicle: saline.
The mark [6] stands for this setting: dose: 50.0 mg/kg/injection, schedule: Q01DX009 (ip), vehicle: saline with Tween-80.
[7] abbreviates: dose: 100.0 mg/kg/injection, schedule: Q01DX009 (ip), vehicle: saline with Tween-80.
Setting [8] is: dose: 200.0 mg/kg/injection, schedule: Q01DX009 (ip), vehicle: saline with Tween-80.

The structures appear in SMILES notation. Where “and” joins values, the source holds several entries; their conditions need not be identical. Equal values may be shown once. Toxic doses and inconclusive results are not listed.

In the case of `NC(=O)N(CCCl)N=O`, the T/C by setting is: (dose: 0.25 mg/kg/injection, schedule: Q01DX010 (ip), vehicle: saline) 190 % of control; (dose: 0.5 mg/kg/injection, schedule: Q01DX010 (ip), vehicle: saline) 209 % of control and 213 % of control; (dose: 1.0 mg/kg/injection, schedule: Q01DX010 (ip), vehicle: saline) 290 % of control and 300 % of control; (dose: 1.25 mg/kg/injection, schedule: Q01DX010 (ip), vehicle: saline) 272 % of control and 168 % of control; (dose: 2.0 mg/kg/injection, schedule: Q01DX010 (ip), vehicle: saline) 277 % of control; (dose: 2.5 mg/kg/injection, schedule: Q01DX010 (ip), vehicle: saline) 118 % of control and 209 % of control. Further, the T/C (dose: 4.0 mg/kg/injection, schedule: Q01DX010 (ip), vehicle: saline) is 90 % of control.
As for `C/C=C1\CN2CCc3c([nH]c4ccccc34)C2CC1Cc1nccc2c1[nH]c1ccccc12` (stereo not drawn), the T/C by setting is: (dose: 1.0 mg/kg/injection, schedule: Q04DX003 (ip), vehicle: saline) 98 % of control; (dose: 2.0 mg/kg/injection, schedule: Q04DX003 (ip), vehicle: saline) 102 % of control; (dose: 4.0 mg/kg/injection, schedule: Q04DX003 (ip), vehicle: saline) 102 % of control; (dose: 6.0 mg/kg/injection, schedule: Q04DX003 (ip), vehicle: saline) 107 % of control; (dose: 12.0 mg/kg/injection, schedule: Q04DX003 (ip), vehicle: saline) 103 % of control; (dose: 24.0 mg/kg/injection, schedule: Q04DX003 (ip), vehicle: saline) 100 % of control. Moreover, the T/C (dose: 48.0 mg/kg/injection, schedule: Q04DX003 (ip), vehicle: saline) is 100 % of control.
In the case of `CCCCS(=N)(=O)CC[C@H](N)C(=O)O` (stereo partly drawn), the T/C is 96 % of control (dose: 50.0 mg/kg/injection, schedule: Q01DX005 (ip), vehicle: saline); 96 % of control (dose: 100.0 mg/kg/injection, schedule: Q01DX005 (ip), vehicle: saline); 91 % of control (dose: 200.0 mg/kg/injection, schedule: Q01DX005 (ip), vehicle: saline); 91 % of control (dose: 400.0 mg/kg/injection, schedule: Q01DX005 (ip), vehicle: saline).
Take `CC(C)=CC(=O)OCC1CC[N+](C)([O-])C1` (stereo not drawn): the T/C by setting is: under setting [1], 100 % of control; (dose: 200.0 mg/kg/injection, schedule: Q01DX001 (ip), vehicle: saline) 95 % of control; (dose: 200.0 mg/kg/injection, schedule: Q01DX009 (ip), vehicle: saline) 91 % of control; (dose: 400.0 mg/kg/injection, schedule: Q01DX009 (ip), vehicle: saline) 103 % of control; (dose: 800.0 mg/kg/injection, schedule: Q01DX001 (ip), vehicle: saline) 91 % of control; (dose: 800.0 mg/kg/injection, schedule: Q01DX009 (ip), vehicle: saline) 103 % of control.
Consider `CC(=O)Oc1cc(-c2ccccc2)c(OC(C)=O)cc1-c1ccccc1`, for which the T/C is, setting by setting: (dose: 6.25 mg/kg/injection, schedule: Q01DX009 (ip), vehicle: water) 109 % of control; (dose: 12.5 mg/kg/injection, schedule: Q01DX009 (ip), vehicle: water) 95 % of control; (dose: 12.5 mg/kg/injection, schedule: Q04DX003 (ip), vehicle: water) 89 % of control; (dose: 25.0 mg/kg/injection, schedule: Q01DX009 (ip), vehicle: water) 93 % of control; (dose: 25.0 mg/kg/injection, schedule: Q04DX003 (ip), vehicle: water) 89 % of control and 95 % of control; (dose: 50.0 mg/kg/injection, schedule: Q01DX009 (ip), vehicle: water) 92 % of control. In addition, the T/C was 91 % of control and 98 % of control (dose: 50.0 mg/kg/injection, schedule: Q04DX003 (ip), vehicle: water); 94 % of control (dose: 100.0 mg/kg/injection, schedule: Q01DX009 (ip), vehicle: water); 89 % of control and 95 % of control (dose: 100.0 mg/kg/injection, schedule: Q04DX003 (ip), vehicle: water); 102 % of control (dose: 200.0 mg/kg/injection, schedule: Q01DX009 (ip), vehicle: water); 107 % of control (dose: 300.0 mg/kg/injection, schedule: Q01DX009 (ip), vehicle: water); 91 % of control (dose: 400.0 mg/kg/injection, schedule: Q01DX009 (ip), vehicle: water).
For `O=[N+]([O-])c1cccc(OCCOc2ccc(S(=O)(=O)F)cc2)c1`, the T/C by setting is: under setting [2], 100 % of control; under setting [3], 100 % of control.
Turning to `CCOc1ccc2nc3cc(N)ccc3c(N)c2c1`, the T/C runs as follows: (dose: 44.0 mg/kg/injection, schedule: Q04DX003 (ip), vehicle: saline) 118 % of control; (dose: 66.0 mg/kg/injection, schedule: Q04DX003 (ip), vehicle: saline) 118 % of control; under setting [4], 118 % of control; under setting [5], 117 % of control; (dose: 400.0 mg/kg/injection, schedule: Q04DX003 (ip), vehicle: saline) 86 % of control.
Turning to `O=C(O)C1(C(=O)O)CC2CC=CCC2C1` (stereo not drawn), the T/C reads like this: under setting [4], 110 % of control; under setting [5], 120 % of control.
On to `OCC1OC(c2ccc(OCc3ccccc3)cc2OCc2ccccc2)C(O)C1O` (stereo not drawn), for which the T/C is 105 % of control under setting [6], 92 % of control under setting [7] and 92 % of control under setting [8].
On to `Cc1cc(C)c(C)c(Br)c1C`, for which the T/C is, setting by setting: (dose: 100.0 mg/kg/injection, schedule: Q04DX003 (ip), vehicle: Klucel (hydroxypropylcellulose) (HPC)) 95 % of control; (dose: 200.0 mg/kg/injection, schedule: Q04DX003 (ip), vehicle: Klucel (hydroxypropylcellulose) (HPC)) 100 % of control; (dose: 400.0 mg/kg/injection, schedule: Q04DX003 (ip), vehicle: Klucel (hydroxypropylcellulose) (HPC)) 100 % of control.
Consider `Cc1ccc(NC(=O)c2ccccc2Cl)cc1C`, for which the T/C reads like this: under setting [2], 104 % of control; (dose: 200.0 mg/kg/injection, schedule: Q04DX003 (ip), vehicle: saline with Tween-80) 113 % of control; under setting [3], 109 % of control.
For the compound `CCN(CC)CCOc1cc(C)ccc1C`, the T/C by setting is: (dose: 25.0 mg/kg/injection, schedule: Q01DX009 (ip), vehicle: saline) 103 % of control; (dose: 25.0 mg/kg/injection, schedule: Q04DX003 (ip), vehicle: saline) 109 % of control; (dose: 50.0 mg/kg/injection, schedule: Q01DX009 (ip), vehicle: saline) 92 % of control; (dose: 50.0 mg/kg/injection, schedule: Q04DX003 (ip), vehicle: saline) 100 % of control; under setting [1], 89 % of control; under setting [4], 90 % of control.
As to `C/C(CCCCl)=N/NC(N)=S`, the T/C was 86 % of control (dose: 75.0 mg/kg/injection, schedule: Q01DX009 (ip), vehicle: saline) and 86 % of control (dose: 115.0 mg/kg/injection, schedule: Q01DX009 (ip), vehicle: saline).
Regarding `O=c1nc(Oc2ccccc2)nc2ncccn12`, the T/C (dose: 12.5 mg/kg/injection, schedule: Q01DX009 (ip), vehicle: saline with Tween-80) was 121 % of control.
With `COc1cccc(Nc2sc(C(=O)c3cc4cc(Cl)ccc4o3)c(N)c2C#N)c1`, the T/C was 109 % of control under setting [6], 100 % of control under setting [7] and 115 % of control under setting [8].
Consider `O=[N+]([O-])c1ccccc1N=N/C(Cc1ccccc1)=N\Nc1ccccc1`, for which the T/C (dose: 100.0 mg/kg/injection, schedule: Q01DX009 (ip), vehicle: Klucel (hydroxypropylcellulose) (HPC)) was 120 % of control and the T/C (dose: 200.0 mg/kg/injection, schedule: Q01DX009 (ip), vehicle: Klucel (hydroxypropylcellulose) (HPC)) is 115 % of control.
For `COc1cc(OC)c(OC)cc1/C=C\c1ccnc2ccccc12`, the T/C runs as follows: (dose: 133.0 mg/kg/injection, schedule: Q01DX010 (ip), vehicle: saline) 120 % of control; (dose: 200.0 mg/kg/injection, schedule: Q01DX009 (ip), vehicle: carboxymethylcellulose (CMC)) 116 % of control; (dose: 200.0 mg/kg/injection, schedule: Q01DX010 (ip), vehicle: saline) 120 % of control; (dose: 400.0 mg/kg/injection, schedule: Q01DX009 (ip), vehicle: carboxymethylcellulose (CMC)) 166 % of control; (dose: 450.0 mg/kg/injection, schedule: Q01DX010 (ip), vehicle: saline) 120 % of control.
